Reference: patent publication US20020198135A1, “Compositions for release of radiosensitizers, and methods of making and using the same” (priority 2000, published 2002)

Experiments:
[1] = test system: U251 xenograft; assay: U251 xenograft model, IUdR polymer paste with continuous ULDR and fractionated HDR; format: in vivo, mice; details: IUdR via 16.7% P(trans-CHDM/HOP) paste, ULDR 0.03 Gy/hr for 72 hr, FIG. 25
Experimental: To test the effect of protracted exposure sensitization, a 137-Cs source was mounted a fixed distance above the cages of animals bearing xenografts for whole body continuous ULDR (as defined below). […] For purposes of this experiment, ULDR=0.03 Gy/hr for 72 hr started 24 hours after xenograft transplantation, and HDR=2 Gy twice a day for 4 days, started immediately after ULDR, which is 4 days after implantation.

[2] = test system: human cancer cell line JHU 012; assay: JHU 012 human cancer cell line tumor in the anterior floor of the mouth of nude mice, intratumoral injection; format: in vivo, immunocompromised (nude) mice; details: intratumoral injection ten days after cell injection, same radiation treatment (as appropriate); measured at approximately twenty days after injection
Experimental: In another in vivo experiment, 1×10^7 cells from the human cancer cell line JHU 012 were injected into the anterior floor of the mouth of immunocompromised (nude) mice. Ten days following injection, animals were anesthetized, tumors measured, intumoral injections of the same compositions identified above were completed followed by the same radiation treatment (as appropriate). At approximately twenty days after injection, animals sacrificed and tumors measured. The following approximate tumor sizes (mm^3) were observed: no treatment, 750; radiation alone, 300; empty microspheres, 500; 47% IUdR microspheres (1.175 mg IUdR in injection volume of 50 ul), 425; empty rods, 250; 33% IUdR rods, 350; and direct intrumoral injection of IUdR (0.065 mg to 0.12 mg in injection volume of 50 ul), 100.

O=c1[nH]c(=O)n([C@H]2C[C@H](O)[C@@H](CO)O2)cc1I [IUdR, 5-iododeoxyuridine]
xenograft growth delay, combination of IUdR and ULDR compared with ULDR plus HDR [1]: more potent than the combination of IUdR and ULDR | xenograft growth, combination of IUdR, ULDR and HDR ([1]; HDR 2 Gy twice a day for 4 days): tumor regression | approximate tumor size [2]: ~100 mm^3
